This note sets out measurements from patent US9181288B2, “Azepane derivatives and methods of treating hepatitis B infections” (Novira Therapeutics, Inc., priority 2014, dated 2015).

The target of assay [1] is HBV C150Bo capsid protein (mutant C150 HBV core protein labeled with BODIPY-FL) (Hepatitis B virus genotype D subtype adw, UniProt P03147, C107A/C48A/C61A/R150C). The experiment in a line: HBV assembly assay (fluorescence quenching in vitro capsid assembly). The settings on record: at about 10 μM; 50 mM Hepes pH 7.5, 150 mM NaCl, 1 hour room temperature. It is filed as biochemical.
HBV C150Bo capsid protein (mutant C150 HBV core protein labeled with BODIPY-FL), sequence (P03147 1-150 C48A/C61A/C107A/R150C): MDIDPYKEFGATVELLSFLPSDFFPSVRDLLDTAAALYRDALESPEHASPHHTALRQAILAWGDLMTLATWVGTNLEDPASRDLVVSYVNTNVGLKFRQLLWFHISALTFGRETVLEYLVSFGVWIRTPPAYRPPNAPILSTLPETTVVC

For assay [2], the system named is HBV replication in HepG2-2.2.15 cells. The experiment in a line: Inhibition of HBV replication dot-blot assay. The note with it: Hepatitis B virus, 144 h, six days, reduction in HBV DNA levels. It counts as cell-based. How it is done: Compounds active in the HBV assembly assay are tested for their activity and toxicity in cellular assay. In the first anti-viral assay, the ability of compounds to inhibit HBV replication in an HBV-producing hepatoma cell line using the dot-blot method is evaluated.
Briefly, confluent monolayers of HepG2-2.2.15 cells are incubated with complete medium containing various concentrations of a test compound. Three days later, the culture medium is replaced with fresh medium containing the appropriately diluted test compound. Six days following the initial administration of the test compound, the cell culture supernatant is collected, and cell lysis is performed. The samples are applied onto Nylos membranes and DNA is immobilized to the membrane by UV cross-linking. After pre-hybridization, the HBV probe is added and the hybridization is performed overnight. The membranes are exposed to the Kodak films; antiviral activity is calculated from the reduction in HBV DNA levels (EC50). The EC50 for antiviral activity is calculated from the dose response curves of active compounds. Assay performance over time is monitored by the use of the standard positive control compounds ETV, BAY 41-4109, and HAP-1.
Selected compounds were tested for their activity and toxicity in cellular assay. In the first anti-viral assay, the ability of compounds to inhibit HBV replication in an HBV-producing hepatoma cell line using the dot-blot method was evaluated.
Confluent monolayers of HepG2-2.2.15 cells were incubated with complete medium containing various concentrations of a test compound. Three days later, the culture medium was replaced with fresh medium containing the appropriately diluted test compound. Six days following the initial administration of the test compound, the cell culture supernatant was collected, and cell lysis was performed. The samples were applied onto Nylos membranes and DNA was immobilized to the membrane by UV cross-linking. After pre-hybridization, the HBV probe was added and the hybridization was performed overnight. The membranes were exposed to the Kodak films; antiviral activity was calculated from the reduction in HBV DNA levels (EC50). The EC50 for antiviral activity was calculated from the dose response curves of active compounds. Assay performance over time was monitored by the use of the standard positive control compounds ETV, BAY 41-4109, and HAP-1.

For the compound `O=C(Nc1ccc(F)c(Cl)c1)c1ccc(F)c(S(=O)(=O)N2C[C@H](O)CC[C@H](O)C2)c1` [Compound 2433_D2, N-(3-chloro-4-fluoro-phenyl)-3-(3,6-dihydroxyazepan-1-yl)sulfonyl-4-fluoro-benzamide], the “Activity (HBV assembly assay)” value in assay [1] was “+ (‘+’ indicates >50% activity at about 10 μM)”. The inhibition (in general, how much of the control response was suppressed) at 10 µM in assay [2] is over 50%.
Take `CC1(O)COCCN(S(=O)(=O)c2cc(C(=O)Nc3ccc(F)c(Cl)c3)ccc2F)C1` (stereo not shown) [Compound 1986]: in assay [1], the “Activity (HBV assembly assay)” value was “+ (‘+’ indicates >50% activity at about 10 μM)”. This compound returned an inhibition at 10 µM in assay [2] of over 50%.
The matching figures for `Cc1ccc(C(=O)Nc2ccc(F)c(Cl)c2)cc1S(=O)(=O)N1CCCC(O)CC1` (stereo not shown) [Compound 1910]: “+ (‘+’ indicates >50% activity at about 10 μM)” and over 50%.
For `CC1(O)CCCN(S(=O)(=O)c2cc(C(=O)Nc3cc(F)c(F)c(F)c3)ccc2CF)CC1` (stereo not shown) [Compound 1829-2], the “Activity (HBV assembly assay)” value in assay [1] is recorded as “+ (‘+’ indicates >50% activity at about 10 μM)”. In assay [2], this compound had an inhibition at 10 µM of over 50%.
For `O=C(Nc1ccc(F)c(Cl)c1)c1ccc(CCF)c(S(=O)(=O)N2CCCC(O)CC2)c1` (stereo not shown) [Compound 2205, N-(3-chloro-4-fluoro-phenyl)-4-(2-fluoroethyl)-3-(4-hydroxyazepan-1-yl)sulfonyl-benzamide] the same measures were “+ (‘+’ indicates >50% activity at about 10 μM)” and over 50%.
As for `CC1(O)CCCN(S(=O)(=O)c2cc(C(=O)Nc3cc(F)c(F)c(F)c3)ccc2F)CC1` (stereo not shown) [Compound 1944], in assay [1], the “Activity (HBV assembly assay)” value was “+ (‘+’ indicates >50% activity at about 10 μM)”. In assay [2], this compound displayed an inhibition at 10 µM of over 50%.
For `O=C(Nc1ccc(F)c(Cl)c1)c1ccc(F)c(S(=O)(=O)N2CCOC[C@@H](O)C2)c1` [Compound 1893_E1] the same measures were “+ (‘+’ indicates >50% activity at about 10 μM)” and over 50%.
As to `O=C(Nc1ccc(F)c(Cl)c1)c1ccc(F)c(S(=O)(=O)N2CCCC[C@@H](O)C2)c1` [Compound 1763_E1], the “Activity (HBV assembly assay)” value in assay [1] is “+ (‘+’ indicates >50% activity at about 10 μM)”. Besides, the inhibition at 10 µM in assay [2] was over 50%.
For `O=C(Nc1cc(F)c(F)c(F)c1)c1ccc(F)c(S(=O)(=O)N2CC(O)CCC(F)C2)c1` (stereo not shown) [Compound 1826_D2] the same measures were “+ (‘+’ indicates >50% activity at about 10 μM)” and over 50%.
As for `CC(=O)O[C@@H]1CC[C@@H](O)CN(S(=O)(=O)c2cc(C(=O)Nc3cc(F)c(F)c(F)c3)ccc2F)C1` [Compound 2618_D1], in assay [1], the “Activity (HBV assembly assay)” value is given as “+ (‘+’ indicates >50% activity at about 10 μM)”. Also, in assay [2], the inhibition at 10 µM is over 50%.
The matching figures for `COc1ccc(C(=O)Nc2ccc(F)c(Cl)c2)cc1S(=O)(=O)N1CCOCC(O)C1` (stereo not shown) [Compound 1980]: “+ (‘+’ indicates >50% activity at about 10 μM)” and over 50%.
For the compound `O=C(Nc1ccc(F)c(F)c1)c1ccc(F)c(S(=O)(=O)N2CC(O)CC3CC3C2)c1` (stereo not shown) [Compound 2547], the “Activity (HBV assembly assay)” value in assay [1] is “+ (‘+’ indicates >50% activity at about 10 μM)”. Besides, the inhibition at 10 µM in assay [2] was over 50%.
Turning to `O=C(Nc1cc(F)c(F)c(F)c1)c1ccc(F)c(S(=O)(=O)N2CCC[C@H](O)C(F)C2)c1` (stereo partly shown) [Compound 1829_D2], in assay [1], the “Activity (HBV assembly assay)” value is “+ (‘+’ indicates >50% activity at about 10 μM)”. In assay [2], this compound yielded an inhibition at 10 µM of over 50%.
The matching figures for `O=C(Nc1cc(F)c(F)c(F)c1)c1ccc(F)c(S(=O)(=O)N2CCCC(F)C(O)C2)c1` (stereo not shown) [Compound 1820]: “+ (‘+’ indicates >50% activity at about 10 μM)” and over 50%.
The matching figures for `O=C(Nc1cc(F)c(F)c(F)c1)c1ccc(F)c(S(=O)(=O)N2CCC[C@@H](O)C(F)C2)c1` (stereo partly shown) [Compound 1829_D1]: “+ (‘+’ indicates >50% activity at about 10 μM)” and over 50%.
For `CC1(O)CCCCN(S(=O)(=O)c2cc(C(=O)Nc3ccc(F)c(Cl)c3)ccc2F)C1` (stereo not shown) [Compound 1890], the “Activity (HBV assembly assay)” value in assay [1] is given as “+ (‘+’ indicates >50% activity at about 10 μM)”. This compound also showed an inhibition at 10 µM in assay [2] of over 50%.
The matching figures for `O=C(Nc1ccc(F)c(Cl)c1)c1ccc(F)c(S(=O)(=O)N2CCOC[C@H](O)C2)c1` [Compound 1893_E2]: “+ (‘+’ indicates >50% activity at about 10 μM)” and over 50%.
Take `O=C(Nc1cc(F)c(F)c(F)c1)c1ccc(F)c(S(=O)(=O)N2C[C@H](O)CC[C@H](O)C2)c1` [Compound 2617_D2]: the “Activity (HBV assembly assay)” value in assay [1] was “+ (‘+’ indicates >50% activity at about 10 μM)”. Moreover, in assay [2], the inhibition at 10 µM is over 50%.
For `O=C(Nc1ccc(F)c(Cl)c1)c1ccc(CF)c(S(=O)(=O)N2CCOCC(O)C2)c1` (stereo not shown) [Compound 1983] the same measures were “+ (‘+’ indicates >50% activity at about 10 μM)” and over 50%.
Consider `O=C(Nc1cc(F)c(F)c(F)c1)c1ccc(F)c(S(=O)(=O)N2CCCCC(F)(F)C2)c1` [Compound 2121], for which the “Activity (HBV assembly assay)” value in assay [1] is recorded as “+ (‘+’ indicates >50% activity at about 10 μM)”. In addition, the inhibition at 10 µM in assay [2] is over 50%.
With `O=C(Nc1cc(F)c(F)c(F)c1)c1ccc(CF)c(S(=O)(=O)N2CCCCCC2)c1` [Compound 2002], in assay [1], the “Activity (HBV assembly assay)” value was “+ (‘+’ indicates >50% activity at about 10 μM)”. Besides, in assay [2], the inhibition at 10 µM is over 50%.
The matching figures for `O=C(Nc1ccc(F)c(Cl)c1)c1ccc(F)c(S(=O)(=O)N2C[C@H](O)CC[C@@H](O)C2)c1` [Compound 2433_D1]: “+ (‘+’ indicates >50% activity at about 10 μM)” and over 50%.
In the case of `O=C(Nc1cc(F)c(F)c(F)c1)c1ccc(F)c(S(=O)(=O)N2CCC(O)C(F)(F)CC2)c1` (stereo not shown) [Compound 2202], in assay [1], the “Activity (HBV assembly assay)” value is “+ (‘+’ indicates >50% activity at about 10 μM)”. For the same compound, the inhibition at 10 µM in assay [2] is over 50%.
Regarding `CC1(O)CCCN(S(=O)(=O)c2cc(C(=O)Nc3ccc(F)c(F)c3)ccc2F)CC1` (stereo not shown) [Compound 1938], the “Activity (HBV assembly assay)” value in assay [1] was “+ (‘+’ indicates >50% activity at about 10 μM)”. This compound had an inhibition at 10 µM in assay [2] of over 50%.
The matching figures for `O=C(Nc1ccc(F)c(Cl)c1)c1ccc(F)c(S(=O)(=O)N2CCOCC(O)(C3CC3)C2)c1` (stereo not shown) [Compound 1989]: “+ (‘+’ indicates >50% activity at about 10 μM)” and over 50%.
For `O=C(Nc1ccc(F)c(Cl)c1)c1ccc(F)c(S(=O)(=O)N2CCCC(F)[C@H](O)C2)c1` (stereo partly shown) [Compound 1822_D2] the same measures were “+ (‘+’ indicates >50% activity at about 10 μM)” and over 50%.
For `O=C(Nc1ccc(F)c(Cl)c1)c1ccc(CF)c(S(=O)(=O)N2CCCCCC2)c1` [Compound 2004] the same measures were “+ (‘+’ indicates >50% activity at about 10 μM)” and over 50%.
For the compound `O=C(Nc1ccc(F)c(F)c1)c1ccc(CF)c(S(=O)(=O)N2CCCC(O)CC2)c1` (stereo not shown) [Compound 1917], the “Activity (HBV assembly assay)” value in assay [1] is “+ (‘+’ indicates >50% activity at about 10 μM)”. This compound gave an inhibition at 10 µM in assay [2] of over 50%.
For `COc1ccc(C(=O)Nc2ccc(F)c(Cl)c2)cc1S(=O)(=O)N1CCCC(O)C(F)C1` (stereo not shown) [Compound 2114_D1] the same measures were “+ (‘+’ indicates >50% activity at about 10 μM)” and over 50%.
For `O=C(Nc1ccc(F)c(F)c1)c1ccc(F)c(S(=O)(=O)N2CCCC(F)[C@H](O)C2)c1` (stereo partly shown) [Compound 1821_D2] the same measures were “+ (‘+’ indicates >50% activity at about 10 μM)” and over 50%.
For `O=C(Nc1cc(F)c(F)c(F)c1)c1ccc(CCF)c(S(=O)(=O)N2CCCC(O)CC2)c1` (stereo not shown) [Compound 2206] the same measures were “+ (‘+’ indicates >50% activity at about 10 μM)” and over 50%.
Consider `O=C(Nc1cc(F)c(F)c(F)c1)c1ccc(F)c(S(=O)(=O)N2CCCC(O)CC2)c1` (stereo not shown) [Compound 1765], for which the “Activity (HBV assembly assay)” value in assay [1] is recorded as “+ (‘+’ indicates >50% activity at about 10 μM)”. The inhibition at 10 µM in assay [2] is over 50%.
